In the test the target is T1, α4β7 integrin (MAdCAM-1 binding, α4β7-positive Th memory cells) (Homo sapiens, UniProt P13612+P26010).
T1 construct: endogenous in cells; host or cells: human whole blood
T1 sequence (P13612 34-1032): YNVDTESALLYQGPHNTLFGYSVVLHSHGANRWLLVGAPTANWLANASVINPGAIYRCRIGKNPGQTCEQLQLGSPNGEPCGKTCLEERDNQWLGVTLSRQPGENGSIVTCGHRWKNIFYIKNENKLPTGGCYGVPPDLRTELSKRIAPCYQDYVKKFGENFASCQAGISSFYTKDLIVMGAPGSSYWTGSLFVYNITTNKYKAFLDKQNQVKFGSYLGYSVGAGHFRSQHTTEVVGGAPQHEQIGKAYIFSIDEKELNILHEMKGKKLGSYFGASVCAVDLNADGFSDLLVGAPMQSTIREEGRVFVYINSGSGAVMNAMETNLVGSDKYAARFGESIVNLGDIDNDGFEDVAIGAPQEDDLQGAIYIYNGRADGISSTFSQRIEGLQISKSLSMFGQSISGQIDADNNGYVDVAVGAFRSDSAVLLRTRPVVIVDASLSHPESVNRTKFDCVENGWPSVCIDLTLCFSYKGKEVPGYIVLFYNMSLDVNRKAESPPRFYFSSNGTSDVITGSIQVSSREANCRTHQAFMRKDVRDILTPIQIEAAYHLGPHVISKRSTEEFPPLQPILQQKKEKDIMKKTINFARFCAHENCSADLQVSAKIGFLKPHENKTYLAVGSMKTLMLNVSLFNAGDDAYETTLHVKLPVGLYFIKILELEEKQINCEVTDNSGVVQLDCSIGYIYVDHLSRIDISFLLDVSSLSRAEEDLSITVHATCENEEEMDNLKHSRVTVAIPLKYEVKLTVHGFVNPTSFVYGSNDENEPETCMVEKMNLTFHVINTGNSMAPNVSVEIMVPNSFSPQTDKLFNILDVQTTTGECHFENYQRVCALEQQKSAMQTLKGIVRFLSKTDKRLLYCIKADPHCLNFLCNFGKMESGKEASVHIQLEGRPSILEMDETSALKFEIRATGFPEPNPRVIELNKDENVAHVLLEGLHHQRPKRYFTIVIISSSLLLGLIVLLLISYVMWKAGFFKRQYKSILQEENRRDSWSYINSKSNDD
T1 sequence (P26010 20-798): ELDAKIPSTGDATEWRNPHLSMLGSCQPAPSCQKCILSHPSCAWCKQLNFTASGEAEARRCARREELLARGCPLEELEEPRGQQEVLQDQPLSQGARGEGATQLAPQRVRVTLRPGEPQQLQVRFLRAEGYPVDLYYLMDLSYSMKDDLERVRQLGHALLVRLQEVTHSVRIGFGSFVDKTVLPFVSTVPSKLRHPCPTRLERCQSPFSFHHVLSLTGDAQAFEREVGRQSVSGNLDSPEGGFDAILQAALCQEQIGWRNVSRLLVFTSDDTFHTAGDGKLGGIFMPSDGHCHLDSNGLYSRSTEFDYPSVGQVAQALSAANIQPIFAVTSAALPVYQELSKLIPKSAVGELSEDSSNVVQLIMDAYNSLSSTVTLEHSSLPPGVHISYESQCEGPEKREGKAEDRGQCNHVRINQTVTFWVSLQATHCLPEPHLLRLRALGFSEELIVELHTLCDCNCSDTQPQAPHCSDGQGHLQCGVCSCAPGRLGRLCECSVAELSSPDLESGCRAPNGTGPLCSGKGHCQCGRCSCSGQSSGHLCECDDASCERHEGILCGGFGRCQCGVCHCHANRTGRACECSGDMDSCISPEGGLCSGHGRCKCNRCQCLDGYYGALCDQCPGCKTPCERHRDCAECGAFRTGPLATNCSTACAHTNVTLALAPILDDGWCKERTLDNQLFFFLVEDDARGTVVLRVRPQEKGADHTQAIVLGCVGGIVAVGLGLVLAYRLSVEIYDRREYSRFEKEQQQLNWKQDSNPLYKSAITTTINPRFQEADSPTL
Description: Competition assay: inhibition of biotinylated rhMAdCAM-1-Fc binding to α4β7-positive Th memory cells in whole blood (FACS receptor occupancy). The format is cell-based. As to conditions: single donor, 4 mM MnCl2, α4β7-positive Th memory cells, read-out: IC50, inhibition of MAdCAM-1 binding to primary cells. The method, then: The compound of Example 1 was used in competition assay on CD4+ integrin α4+β7-|o memory T cells.
Receptor occupancy in primary cells was determined by measuring the amount of biotinylated human recombinant MAdCAM-1-Fc or human recombinant VCAM-1-Fc bound to selected cell populations using flow cytometry. Human recombinant MAdCAM-1-Fc or human recombinant VCAM-1-Fc (R&D systems) were biotinylated using commercially available reagents and protocol (Pierce).
Whole blood was collected from human donors in sodium heparin tubes. A volume of 100 µL of blood was incubated with the compound of Example 1 and 4 mM MnCl2 for 1 hour at room temperature. Cells were washed twice with 1 mL of 1X Dulbecco’s phosphate buffered saline (DPBS) calcium magnesium free (CMF) (ThermoFisher Scientific) and resuspended in 100 µL of DPBS CMF. […]
Fluorescence-activated cell sorting (FACS) data was acquired by electronic gating on the basis of forward versus side scatter. […] Cell population were determined using the following markers: CD45+, CD3+, CD4+,CD45RO+, CD49d+, integrin β7, biotinylated ligands.
Compound receptor occupancy was defined as the decrease in the number of integrin β7+ or integrin β7-lo cells binding biotinylated rhMAdCAM-1 or rhVCAM-1, respectively. Receptor occupancy was calculated with the following equation: […]

Structures are written as SMILES.

By IC50 is commonly meant the concentration that gives 50% inhibition. Consider `CC(C)C[C@@H]1NC(=O)c2ccc(-c3ccc(N4CCN(C(=O)c5ccccc5-c5ccccc5C(=O)N5CCN(c6ccc(-c7ccc8cc7CNC(=O)[C@@H]7CCCN7[C@H](C(=O)NC(C)(C)C)[C@H](C)NC(=O)[C@H]([C@@H](C)O)NC(=O)[C@H](CC(=O)O)NC(=O)[C@H](CC(C)C)NC8=O)cc6)CC5)CC4)cc3)c(c2)CNC(=O)[C@@H]2CCCN2[C@H](C(=O)NC(C)(C)C)[C@H](C)NC(=O)[C@H]([C@@H](C)O)NC(=O)[C@H](CC(=O)O)NC1=O` [Example 1, 2,2′-((S,S,S,S,S,S,1^2,8S,11S,14S,17S,18S)-((([1,1′-Biphenyl]-2,2′-Dicarbonyl)-Bis(Piperazine-4,1-Diyl))Bis(4,1-Phenylene))Bis(18-(Tert-Butylcarbamoyl)-14-((R)-1-Hydroxyethyl)-8-Isobutyl-17-Methyl-2,6,9,12,15-Pentaoxo-3,7,10,13,16-Pentaaza-1(2,1)-Pyrrolidina-5(1,3)-Benzenacyclooctadecaphane-5^6,11-Diyl))-Diacetic Acid], for which the 50% inhibitory concentration (IC50) was about 87 nM.

(Values after patent US20230295235A1, “COMPOUNDS TARGETING ALPHA4-BETA7 INTEGRIN” (ZEALAND PHARMA A/S, priority 2020, published 2023).)
